Measurements taken from patent publication US20250027956A1, “Improved Gamma-Secretase Inhibitor Screening Assays” (VIB VZW, priority 2021, published 2025).

Experiments:
Npc1 cats = settings: intrathecal 120 mg every 2 weeks; cited from earlier work
PSENdKO cells [1] = test: Confocal immunofluorescence (compartment size, Mander's colocalization, filipin) in PSENdKO cells; format: cell-based, mouse
Experimental: For OSW-1 (30310-1, Sanbio/Cayman Chemical), cells were treated overnight with 10 nM. Diluent treatment alone (in most cases DMSO, water for the cyclodextrin) was used as vehicle control. KO cell lines: PSEN1 and 2 KO cell lines (PSENdKO) cell lines were established as described in ([…] al 2020). Briefly, the web-based CRISPR design tool was used to select the sequence to be targeted in mouse PSEN1 and PSEN2 ([NT] and [NT], respectively). Oligo pairs encoding guide sequences (obtained from Integrated DNA Technologies, IDT) were annealed and ligated into the pX330 plasmid (Addgene) according to the Zhang's laboratory protocol (https://www.addgene.org/crispr/zhang/). MEF cells were then transfected with the pX330-PSEN1 and PX330-PSEN2, using Fugene HD (Promega), in accordance with the manufacturer protocol. Selection of PSENdKO clones was achieved through serial dilution and confirmed by WB analysis. Further depletion of APP in different PSENdKO clones was achieved through electroporation of RNP complexes. Single guide RNA (sgRNAs) were designed to either target exon 2 ([NT]) or exon 3 ([NT]). The Neon Transfection System (ThermoFisher Scientific, one pulse, 1650 V, 20 ms) was used to electroporate 150 000 cells with 10 pmol of Cas 9 (IDT) and 20 pmol of single guide RNA (IDT). As above, cells were amplified and selection of independent APPKO clones was performed with serial dilutions and WB characterization. All clones of interest were sequenced using Sanger sequencing. […] Primary antibodies diluted in the same blocking buffer were incubated overnight at 4° C. Following PBS washing steps, (goat- or donkey-) secondary antibodies conjugated with Alexa fluor dyes (Alexa 488, 568, or 647, all ThermoFisher Scientific) diluted in the blocking buffer were incubated for 1 h, RT. Coverslips were then mounted with Mowiol (Sigma). When cholesterol labelling was performed, fixed cells were treated with 200 μg·ml-1 filipin (F4767, Sigma) for 2 h at RT, prior to permeabilization. Acquisition: Z stack images (spacing 2 μm), or a median plan were acquired on a Nikon 1AR connected to an inverse Nikon Ti-2000 equipped with an oil-immersion plan APO 60× objective lenses with 1.40 NA. Data were collected using Nikon Imaging Software. […] Image analysis: All image analysis was done using Image J software (Schindelin et al 2012; Schneider et al 2012). To measure the area of the organelle of interest (early endosomes-EEA1; lysosomes-Lamp1; retromer-VPS35 . . . ), segmentation was realized using automatic thresholding. The following masks were used: Mean (EEA1), Ostu (Lamp1), Intermodes (VPS35). Overlap of signal of interests were quantified with Manders colocalisation index (Plugin Jacob, (Bolte and Cordelieres 2006)). When indicated, co-localization data was normalized to the reference group for multiple comparisons.

Npc1-null cells = settings: cited from earlier work
PSENdKO cells [2] = test: Lysosomal Ca2+ content, Fura-2AM loaded cells challenged with GPN, PSENdKO cells; format: cell-based, mouse; set-up: lysosomal Ca2+ content: dose or concentration left out as unconfirmed
From the text: Diluent treatment alone (in most cases DMSO, water for the cyclodextrin) was used as vehicle control.
Briefly, the web-based CRISPR design tool was used to select the sequence to be targeted in mouse PSEN1 and PSEN2 (i.e. 5′-[…]-3′ and 5′-[…]-3′, respectively). Oligo pairs encoding guide sequences (obtained from Integrated DNA Technologies, IDT) were annealed and ligated into the pX330 plasmid (Addgene) according to the Zhang's laboratory protocol (https://www.addgene.org/crispr/zhang/). MEF cells were then transfected with the pX330-PSEN1 and PX330-PSEN2, using Fugene HD (Promega), in accordance with the manufacturer protocol. Selection of PSENdKO clones was achieved through serial dilution and confirmed by WB analysis. Further depletion of APP in different PSENdKO clones was achieved through electroporation of RNP complexes. […]
Cells were rinsed three times and left to equilibrate for at least 15-20 min (RT). […] Briefly, cells were segmented manually and fluorescence intensities were measured over time. Fura-2 signals were corrected to obtain ΔF/F0 (F0 being the initial signal recorded). For each cell, the area under the curve, corresponding to the aforementioned stimulation, was measured using GraphPad Prism.

LE/Ly cholesterol = settings: cited from earlier work
WT MEFs = test: Lysosomal Ca2+ content, Fura-2AM loaded cells challenged with GPN, WT cells; format: cell-based, mouse
Experimental: Cells were treated with the following drugs, usually for 4 days, unless otherwise stated: DAPT (2634/10, Tocris) 1 μM final; Inhibitor X (565771-250 μg, Calbiochem/Merck) 1 μM final; β-Secretase Inhibitor IV (565788, Calbiochem/Merck) 2 μM final, (2-Hydroxypropyl)-γ-cyclodextrin (H125-5G-I, Sigma Aldrich) 1 mM final; Adam 10 inhibitor G1254023X (SML0789, Sigma Aldrich) 3 μM final. For OSW-1 (30310-1, Sanbio/Cayman Chemical), cells were treated overnight with 10 nM. Diluent treatment alone (in most cases DMSO, water for the cyclodextrin) was used as vehicle control.
Cytosolic response: Ca2+ responses were measured as previously described in Coen et al 2012. Briefly, cells (0.005 to 0.01×106) were seeded two to three days prior to the experiment on glass coverslips (631-0153, VWR). On the day of recording, cells were rinsed three times in Ringer solution (155 mM NaCl, 5 mM KCl, 2 mM MgCl2, 2 mM CaCl2, 10 mM Glucose, 10 mM HEPES, 2 mM NaH2PO4·2H20; pH 7.3), and loaded 1 μM Fura2-AM (F1221, ThermoFisher Scientific) for 30 min (RT). Cells were rinsed three times and left to equilibrate for at least 15-20 min (RT). All acquisitions were carried out in Ringer Ca2+ free solution (same as above, albeit the 2 mM CaCl2 were replaced by 2 mM EGTA). During experiments, cells were challenged with different drugs, such as Thapsigargin (T7459, ThermoFisher Scientific, 1 μM final), GPN (ab145914, abcam, 100 μM final for MEFs, 500 μM for neurons), MLSA1 (Cat. No. 4746, Tocris, 20 μM final) or lonomycin (10634, Sigma Aldrich, 1 μM final). Images were acquired every 5 sec for 8-10 min, using an Olympus IX81 using an UAPO/340 40× oil objective (1.35 NA), operated by CellR Software (Olympus). Recordings were done using 340 and 380 nm excitation, and 530 nm emission filters. Image processing was performed using Image J Software (Schindelin et al 2012; Schneider et al 2012). Briefly, cells were segmented manually and fluorescence intensities were measured over time. Fura-2 signals were corrected to obtain ΔF/F0 (F0 being the initial signal recorded). For each cell, the area under the curve, corresponding to the aforementioned stimulation, was measured using GraphPad Prism.

NPC disease models = settings: cited from earlier work
Npc1 mice = settings: oral; cited from earlier work
cats = settings: cited from earlier work
NPC patients = settings: clinical trials; cited from earlier work
[3] = tested on: NPC1−/− neural stem cells; settings: cited from earlier work
[4] = tested on: cultured skin fibroblasts of NPC patients; settings: cited from earlier work
[5] = overnight, 10 nM, data not shown

## 2-Hydroxypropyl-beta-cyclodextrin [HP-beta-CD]
Npc1 cats
  neurological dysfunction and lipid accumulation in neurons: reduced neurological dysfunction and lipid accumulation in neurons

## 2-hydroxypropyl-γ-cyclodextrin [HPγCD]
PSENdKO cells [1]; 1 mM, 4 days
  EEA1 area: reduced EEA1 area
  accumulation of membrane-tethered APP fragments in Lamp1-positive LE/Lys: strongly reduced
  colocalization of VPS35 with Lamp1: decreased colocalization of VPS35
  filipin staining in Lamp1-positive LE/Lys: Reduced filipin staining
Npc1-null cells
  intracellular free cholesterol levels and lysosome changes: reduce intracellular free cholesterol levels and normalize the lysosome changes
PSENdKO cells [2]; 4 days
  lysosomal Ca2+ content: fully restored lysosomal Ca2+ content

## C=CCNC1=C2C[C@@H](C)C[C@H](OC)[C@H](O)[C@@H](C)/C=C(\C)[C@H](OC(N)=O)[C@@H](OC)/C=C\C=C(/C)C(=O)NC(=CC1=O)C2=O [17-AAG]
LE/Ly cholesterol
  clearance of cholesterol from LE/Ly: clearance of cholesterol from LE/Ly

## CC(C)c1cc(C(=O)N2Cc3ccc(CN4CCN(C)CC4)cc3C2)c(O)cc1O [AT13387]
LE/Ly cholesterol
  clearance of cholesterol from LE/Ly: clearance of cholesterol from LE/Ly

## CCNC(=O)c1noc(-c2cc(C(C)C)c(O)cc2O)c1-c1ccc(CN2CCOCC2)cc1 [AUY922]
LE/Ly cholesterol
  clearance of cholesterol from LE/Ly: clearance of cholesterol from LE/Ly

## CC(C)c1cc(-c2n[nH]c(=O)n2-c2ccc3c(ccn3C)c2)c(O)cc1O [Ganetespib]
LE/Ly cholesterol
  clearance of cholesterol from LE/Ly: clearance of cholesterol from LE/Ly

## Cc1ccc(NC(=O)c2ccc(CN3CCN(C)CC3)cc2)cc1Nc1nccc(-c2cccnc2)n1 [Imatinib]
PSENdKO cells [1]
  APP-CTFs in VPS35-positive organelles: significant decrease of APP-CTFs in VPS35-positive organelles
PSENdKO cells [1]; vs DMSO
  VPS35-LAMP1 co-localization: lowered VPS35-LAMP1 co-localization

## CC(C)C[C@H](NC(=O)[C@H](Cc1ccccc1)C[C@@H](O)[C@H](Cc1ccccc1)NC(=O)OC(C)(C)C)C(=O)N[C@@H](Cc1ccccc1)C(N)=O [InhibitorX]
WT MEFs; WT cells, 1 μM, 4 days, normalized to DMSO
  lysosomal Ca2+ content: reduced

## Cc1[nH]c2ccccc2c1CCNCc1ccc(/C=C/C(=O)NO)cc1 [LBH589]
NPC disease models
  cholesterol accumulation: efficiently correct cholesterol accumulation

## CCCCN1C[C@H](O)[C@@H](O)[C@H](O)[C@H]1CO [Miglustat, N-butyl-deoxynojirimycin]
Npc1 mice
  accumulation of gangliosides in the brain: reduced the accumulation of gangliosides in the brain
  increase of lifespan: approximately 33%
  neurological progression of the disease: slowed the neurological progression of the disease
cats
  accumulation of gangliosides in the brain: reduced accumulation of gangliosides in the brain
  increase of lifespan: approximately 74%
  onset of neurological symptoms: delayed onset of neurological symptoms
NPC patients
  neurological outcome (e.g. dysphagia, supranuclear gaze palsy): neurological improvement or stabilization

## COc1ccc(C(=O)O[C@H]2[C@H](O[C@@H]3[C@@H](OC(C)=O)[C@H](O[C@H]4C[C@H]5[C@@H]6CC=C7C[C@@H](O)CC[C@]7(C)[C@H]6CC[C@]5(C)[C@@]4(O)[C@H](C)C(=O)CCC(C)C)OC[C@@H]3O)OC[C@@H](O)[C@@H]2O)cc1 [OSW-1]
PSENdKO cells [1]; [5]
  lysosomal cholesterol staining: did not decrease lysosomal cholesterol staining
PSENdKO cells [2]; [5]
  lysosomal Ca2+ dysfunction: nor did it rescue lysosomal Ca2+ dysfunction

## CC1(C)CC(=O)c2c(C(F)(F)F)nn(-c3ccc(C(N)=O)c(N[C@H]4CC[C@H](O)CC4)c3)c2C1 [SNX2112]
LE/Ly cholesterol
  clearance of cholesterol from LE/Ly: clearance of cholesterol from LE/Ly

## CCc1cc(C(N)=O)ccc1-n1nc(C(C)C)c2c(-n3cnc(-c4cnn(C)c4)c3)ccnc21 [TAS-116]
LE/Ly cholesterol
  clearance of cholesterol from LE/Ly: clearance of cholesterol from LE/Ly

## CCCC(CCC)C(=O)O [Valproic acid]
[3]
  benefit in NPC1−/− neural stem cells: some benefit

## O=C(CCCCCCC(=O)Nc1ccccc1)NO [Vorinostat, suberanilohydroxamic acid]
[4]
  accumulation of lipids in the lysosomes: reduces the accumulation of lipids in the lysosomes

## Nc1ccc(C(=O)Nc2cccc(-c3nc(N4CCOCC4)c4oc5ncccc5c4n3)c2)cn1 [YM201636]
WT MEFs; WT cells, 2 μM, 2 h, 100 μM GPN
  Lysosomal Ca2+ levels: reduced

## [O-][n+]1cccc(/C(Cl)=N/OC[C@H](O)CN2CCCCC2)c1 [arimoclomol]
LE/Ly cholesterol
  clearance of cholesterol from LE/Ly: same effect

## CO/C1=C\C(C)=C\[C@@H](C)[C@@H](O)[C@@H](C)C/C(C)=C/C=C/[C@H](OC)[C@@H]([C@@H](C)[C@@H](O)[C@H](C)[C@@]2(O)C[C@@H](O)[C@H](C)[C@@H](C(C)C)O2)OC1=O [bafilomycin1]
WT MEFs; full alkalinization, compared with PSENdKO cells
  lysosomal Ca2+ content: equally affected lysosomal Ca2+ content as observed in PSENdKO cells

## CC(/C=C/C(=O)NO)=C\[C@@H](C)C(=O)c1ccc(N(C)C)cc1 [trichostatin A]
NPC disease models
  cholesterol accumulation: efficiently correct cholesterol accumulation
